Laboratory results: ChEMBL document CHEMBL6127154, “Pursuing Polypharmacology: Benzothiopyranoindoles as G-Quadruplex Stabilizers and Topoisomerase I Inhibitors for Effective Anticancer Strategies” (ACS Med Chem Lett, 2024)
Active and inactive are the calls of the source. The rule behind the calls is not given here.

What was measured:
HCC 2998 = experiment: Antiproliferative activity against human HCC 2998 cells assessed as growth inhibition incubated for 48 hrs by SRB assay; assay type: functional
MOLT-4 = experiment: Antiproliferative activity against human MOLT-4 cells assessed as growth inhibition incubated for 48 hrs by SRB assay; assay type: functional
HOP-92 = experiment: Antiproliferative activity against human HOP-92 cells assessed as growth inhibition incubated for 48 hrs by SRB assay; assay type: functional
OVCAR-3 = experiment: Antiproliferative activity against human OVCAR-3 cells assessed as growth inhibition incubated for 48 hrs by SRB assay; assay type: functional
A549 = experiment: Antiproliferative activity against human A549 cells assessed as growth inhibition incubated for 48 hrs by SRB assay; assay type: functional
CAKI-1 = experiment: Antiproliferative activity against human CAKI-1 cells assessed as growth inhibition incubated for 48 hrs by SRB assay; assay type: functional
RXF 393 = experiment: Antiproliferative activity against human RXF 393 cells assessed as growth inhibition incubated for 48 hrs by SRB assay; assay type: functional
A498 = experiment: Antiproliferative activity against human A498 cells assessed as growth inhibition incubated for 48 hrs by SRB assay; assay type: functional
SK-MEL-2 = experiment: Antiproliferative activity against human SK-MEL-2 cells assessed as growth inhibition incubated for 48 hrs by SRB assay; assay type: functional
MDA-MB-435 = experiment: Antiproliferative activity against human MDA-MB-435 cells assessed as growth inhibition incubated for 48 hrs by SRB assay; assay type: functional
HCT-116 = experiment: Induction of DNA damage in human HCT-116 cells assessed as increase in gammaH2AX level incubated for 24 hrs by immunofluorescence staining based analysis; assay type: functional, cell-based
OVCAR-8 = experiment: Antiproliferative activity against human OVCAR-8 cells assessed as growth inhibition incubated for 48 hrs by SRB assay; assay type: functional
NCI-H226 = experiment: Antiproliferative activity against human NCI-H226 cells assessed as growth inhibition incubated for 48 hrs by SRB assay; assay type: functional
DU-145 = experiment: Antiproliferative activity against human DU-145 cells assessed as growth inhibition incubated for 48 hrs by SRB assay; assay type: functional
HOP-62 = experiment: Antiproliferative activity against human HOP-62 cells assessed as growth inhibition incubated for 48 hrs by SRB assay; assay type: functional
MDA-MB-468 = experiment: Antiproliferative activity against human MDA-MB-468 cells assessed as growth inhibition incubated for 48 hrs by SRB assay; assay type: functional
HL-60 = experiment: Antiproliferative activity against human HL-60 cells assessed as growth inhibition incubated for 48 hrs by SRB assay; assay type: functional
Quadruplex DNA [1] = experiment: Stabilization of human telomeric 23 hybrid G4 quadruplex DNA incubated for 10 mins by circular dichroism spectroscopic analysis; assay type: nucleic-acid assay
MDA-MB-231 = experiment: Antiproliferative activity against human MDA-MB-231 cells assessed as growth inhibition incubated for 48 hrs by SRB assay; assay type: functional
LOX IMVI = experiment: Antiproliferative activity against human LOX IMVI cells assessed as growth inhibition incubated for 48 hrs by SRB assay; assay type: functional
Quadruplex DNA [2] = experiment: Stabilization of human telomeric 26 hybrid G4 quadruplex DNA incubated for 10 mins by circular dichroism spectroscopic analysis; assay type: nucleic-acid assay
[3] = molecular target: DNA topoisomerase 1 (Homo sapiens) (UniProt P11387); experiment: Inhibition of human Topoisomerase 1 assessed as relaxation of supercoiled plasmid pBR322 DNA at 2.5 uM incubated for 1 hr by ethidium bromide staining based agarose gel electrophoresis
NCI-H322M = experiment: Antiproliferative activity against human NCI-H322M cells assessed as growth inhibition incubated for 48 hrs by SRB assay; assay type: functional
SF-295 = experiment: Antiproliferative activity against human SF-295 cells assessed as growth inhibition incubated for 48 hrs by SRB assay; assay type: functional
dsDNA [4] = experiment: Binding affinity to human […] Tel26-hy DNA assessed as dissociation constant by MST analysis; assay type: nucleic-acid assay
Quadruplex DNA [5] = experiment: Binding affinity to human hybrid Tel23 G4 quadruplex DNA assessed as dissociation constant by MST analysis; assay type: nucleic-acid assay
Quadruplex DNA [6] = experiment: Thermal stabilization of FAM labeled human Tel21T G4 quadruplex DNA assessed as change in melting temperature (deltaT1/2) in presence of unlabeled duplex competitor (ds26) by FRET assay; assay type: nucleic-acid assay
Quadruplex DNA [7] = experiment: Thermal stabilization of FAM labeled human Tel21T G4 quadruplex DNA assessed as change in melting temperature (deltaT1/2) in presence of 15 uM unlabeled duplex competitor (ds26) by FRET assay; assay type: nucleic-acid assay
NCI-H522 = experiment: Antiproliferative activity against human NCI-H522 cells assessed as growth inhibition incubated for 48 hrs by SRB assay; assay type: functional
Quadruplex DNA [8] = experiment: Binding affinity to human parallel c-Kit2 G4 quadruplex DNA assessed as dissociation constant by MST analysis; assay type: nucleic-acid assay
Quadruplex DNA [9] = experiment: Thermal stabilization of FAM labeled human Tel21T G4 quadruplex DNA assessed as change in melting temperature (deltaT1/2) in presence of 50 uM unlabeled duplex competitor (ds26) by FRET assay; assay type: nucleic-acid assay
dsDNA [10] = experiment: Binding affinity to human duplex ds26 DNA assessed as dissociation constant by MST analysis; assay type: nucleic-acid assay
Quadruplex DNA [11] = experiment: Binding affinity to human hybrid c-Myc G4 quadruplex DNA assessed as dissociation constant by MST analysis; assay type: nucleic-acid assay

Chain of DNA topoisomerase 1 (Homo sapiens) (P11387 whole entry): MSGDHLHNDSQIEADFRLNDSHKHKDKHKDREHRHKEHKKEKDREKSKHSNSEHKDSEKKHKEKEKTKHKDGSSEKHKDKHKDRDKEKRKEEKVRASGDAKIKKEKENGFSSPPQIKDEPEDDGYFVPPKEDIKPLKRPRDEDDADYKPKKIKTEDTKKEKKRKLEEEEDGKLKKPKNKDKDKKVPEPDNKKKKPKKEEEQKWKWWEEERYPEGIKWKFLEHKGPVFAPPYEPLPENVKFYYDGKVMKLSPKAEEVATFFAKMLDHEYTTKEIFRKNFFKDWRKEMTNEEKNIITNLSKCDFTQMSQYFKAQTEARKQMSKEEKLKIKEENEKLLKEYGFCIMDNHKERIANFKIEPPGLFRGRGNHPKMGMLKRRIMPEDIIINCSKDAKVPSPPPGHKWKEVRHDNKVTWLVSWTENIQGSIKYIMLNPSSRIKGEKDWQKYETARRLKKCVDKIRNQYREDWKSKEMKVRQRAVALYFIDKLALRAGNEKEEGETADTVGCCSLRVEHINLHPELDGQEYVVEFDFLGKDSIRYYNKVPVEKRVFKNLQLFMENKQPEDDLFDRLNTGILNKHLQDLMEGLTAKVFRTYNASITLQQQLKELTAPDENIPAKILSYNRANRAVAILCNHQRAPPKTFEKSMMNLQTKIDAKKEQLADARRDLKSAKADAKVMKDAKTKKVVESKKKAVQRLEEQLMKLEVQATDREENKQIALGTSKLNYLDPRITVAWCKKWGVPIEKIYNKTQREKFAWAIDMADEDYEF

CCN(CC)CCn1c2ccc(O)cc2c2sc3cc(OC)ccc3c(=O)c21
GI (HCC 2998): 1.47 µM | GI (MOLT-4): 0.389 µM | GI (HOP-92): 2.58 µM | GI (OVCAR-3): 2.19 µM | GI (A549): 1.63 µM | GI (CAKI-1): 3.73 µM | GI (RXF 393): 1.31 µM | GI (A498): 3.08 µM | GI (SK-MEL-2): 9.15 µM | GI (MDA-MB-435): 1.64 µM | Activity (HCT-116): Active | GI (OVCAR-8): 2.1 µM | GI (NCI-H226): 10.4 µM | GI (DU-145): 1.71 µM | GI (HOP-62): 6.03 µM | GI (MDA-MB-468): 1.54 µM | GI (HL-60): 1.72 µM | Activity (Quadruplex DNA [1]): Active | GI (MDA-MB-231): 1.61 µM | GI (LOX IMVI): 1.21 µM | Activity (Quadruplex DNA [2]): Active | inhibition [3]: Active | GI (NCI-H322M): 6.89 µM | GI (SF-295): 5.35 µM

CCN(CC)CCn1c2ccc(OC)cc2c2sc3cc(OC)ccc3c(=O)c21
GI (HCC 2998): 1.48 µM | GI (MOLT-4): 0.383 µM | Kd (dsDNA [4]): 23000 nM | Kd (Quadruplex DNA [5]): 9000 nM | GI (HOP-92): 1.13 µM | GI (OVCAR-3): 2.12 µM | ΔTm (Quadruplex DNA [6]): 12.6 °C | GI (A549): 1.59 µM | GI (CAKI-1): 1.65 µM | GI (RXF 393): 1.4 µM | ΔTm (Quadruplex DNA [7]): 1.9 °C | GI (A498): 1.12 µM | GI (SK-MEL-2): 2.1 µM | GI (MDA-MB-435): 1.73 µM | Activity (HCT-116): Active | GI (NCI-H522): 1.71 µM | GI (OVCAR-8): 1.93 µM | GI (NCI-H226): 2.46 µM | GI (DU-145): 1.67 µM | GI (HOP-62): 2.32 µM | Kd (Quadruplex DNA [8]): 300 nM | GI (MDA-MB-468): 1.56 µM | GI (HL-60): 1.77 µM | Activity (Quadruplex DNA [1]): Active | GI (MDA-MB-231): 1.54 µM | ΔTm (Quadruplex DNA [9]): 1.6 °C | GI (LOX IMVI): 1.3 µM | Activity (Quadruplex DNA [2]): Active | inhibition [3]: Active | GI (NCI-H322M): 1.59 µM | Kd (dsDNA [10]): 1300 nM | Kd (Quadruplex DNA [11]): 2100 nM | GI (SF-295): 1.82 µM
